Values of other authors, collected in US20090312688A1, “IONTOPHORESIS DRUG DELIVERY FORMULATION PROVIDING ACCEPTABLE SENSATION AND DERMAL ANESTHESIA” (Vyteris, Inc., priority 2005, published 2009).

Conditions: iontophoresis in vitro across human skin

cumulative delivery relative to lidocaine | SMILES
slightly greater delivery | CCN(CC)CCOC(=O)c1ccc(N)cc1 [procaine]
slightly greater delivery | CCCNC(C)C(=O)Nc1ccccc1C (stereo not drawn) [prilocaine]
slightly greater delivery | CCCN(CC)C(CC)C(=O)Nc1c(C)cccc1C (stereo not drawn) [etidocaine]
